Test results taken from patent US20090175981A1, “COMPOSITIONS, METHODS AND USES FOR A NOVEL FAMILY OF PEPTIDES” (priority 2004, published 2009).
Where “and” joins values, the source holds several entries; their conditions need not be identical. Equal values may be shown once. Marks after values point to notes of the source that are not given here.

Assays:
[1] = tested on: food-producing animals; assay: Growth promotion in food-producing animals (overall statement); type: in vivo, chicken; conditions: used to promote growth
Excerpt: Alternatively, but in no way limiting the present invention, the present invention may be used as an animal-use only antibiotic for bacterial infections.

[2] = tested on: S. cerevisiae; assay: In vitro antifungal MIC; type: cell-based
[3] = type: physicochemical; conditions: pH 1.0 plus 100° C. overnight
[4] = tested on: Tetrahymena; assay: In vitro anti-protozoal MIC; type: cell-based
[5] = tested on: straight run broilers; assay: Growth and feed conversion of 20-day old broilers in batteries, mash feed (Studies 2-1 and 2-2); type: in vivo, chicken
Protocol: Briefly, the peptide was used in a semi-purified form to study the growth and feed conversion of […] old straight run broilers in batteries (Studies 2-1 and 2-2). Two amounts were tested against a feed control, peptide at 6 ppm and peptide at 12 ppm, 12 repetitions were carried out per treatment with 4 birds per pen. The diet used in the study was as follows.

[6] = tested on: Gram-positive bacteria; assay: In vitro antibacterial MIC, Gram-positive bacteria; type: cell-based; conditions: most Gram (+)
Protocol: (§1) MIC determination assays. Staphylococcal aureus was grown to mid-log phase in LB at 37° C., and diluted by 500-fold with fresh LB and dispensed into 96-well micro-titer plates. Different concentrations of peptides were added, and the micro-titer plates were incubated at 37° C. with shaking. A minimal inhibition concentration (MIC) was determined as the lowest peptide concentration that produced a clear well. All experiments were performed in triplicates, and highly consistent MICs were obtained.
(§2) For Gram (−) the following were the antimicrobial activities observed: E. coli: MIC>20 microgram/ml; Pseudomonas and Salmonella: MIC>100 microgram/ml.

[7] = tested on: Broiler Chicken; assay: Growth promoting battery Studies 1-1 and 1-2; type: in vivo
[8] = tested on: Broiler Chicken; assay: Growth promoting Studies 4-1 and 4-2 with direct coccidial challenge; type: in vivo
[9] = molecular target: T1, carboxypeptidase Y (Saccharomyces cerevisiae, UniProt P00729)
T1 sequence (P00729 112-532): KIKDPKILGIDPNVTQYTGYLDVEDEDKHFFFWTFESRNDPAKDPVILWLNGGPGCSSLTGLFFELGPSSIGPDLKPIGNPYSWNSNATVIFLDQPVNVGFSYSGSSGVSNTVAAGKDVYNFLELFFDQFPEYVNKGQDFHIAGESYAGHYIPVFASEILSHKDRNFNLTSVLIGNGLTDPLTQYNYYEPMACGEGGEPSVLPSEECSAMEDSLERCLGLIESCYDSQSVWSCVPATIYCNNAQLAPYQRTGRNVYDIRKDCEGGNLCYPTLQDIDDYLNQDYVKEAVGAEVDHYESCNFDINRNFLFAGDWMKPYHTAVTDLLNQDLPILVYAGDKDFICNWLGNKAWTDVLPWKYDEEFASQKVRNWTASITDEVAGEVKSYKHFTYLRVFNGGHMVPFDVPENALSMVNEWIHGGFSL

[10] = tested on: Pseudomonas; assay: In vitro antimicrobial MIC, Pseudomonas; type: cell-based
Protocol: as §1, §2

[11] = tested on: straight run broilers; assay: Growth and feed conversion of 3-wk old broilers in batteries, pelleted starter feed (Studies 3-1 and 3-2); type: in vivo, chicken
Excerpt: Eight (8) study repetitions per treatment were used, again with 4 birds per pen.

[12] = tested on: Staphylococcal aureus; assay: MIC determination assay / antibiotic activity of synthetic BT variants; type: cell-based; conditions: FIG. 6B
Protocol: as §1

[13] = tested on: broiler chickens; assay: 42-day broiler floor pen trial with natural colibacillosis challenge; type: in vivo, chicken
Protocol: A broiler floor pen trial to compare the performance of a new anti-microbial designated for this project as BT1583 alone and in combination with the widely used coccidiostat monensin (MON) to MON fed alone, MON in combination with the also widely used antimicrobial Bacitracin MD (BMD) and BMD alone.
The following levels of each treatment were evaluated:
The study design included 10 pens per treatment and 40 birds per pen housed on day of hatch. Two basal corn-soy based diets of decreasing protein (approximately 23 to 20%) and increasing metabolizable energy (approximately 1400 to 1455 kcal/lb) were used from Day 0 to 21 (starter feed) and Days 22 to 42 (grower feed), respectively. Treatment premixes were measured and blended into diets at required levels. Between days 0 and 21 mortality was less than 1% with all birds growing optimally and of high health across all groups.
Beginning on study day 22, the study director modulated house temperature and air flow to mimic industry conditions conducive to outbreaks of colibacillosis within naïve broiler flocks. This was done to stimulate a natural challenge for this study. Mortality climbed to a house average of approximately 10% by Day 42. A majority of these deaths occurred in groups not receiving BT1583 or MON. Lesions were consistent with those of colibacillosis (air sac, pneumonia, peri-hepatitis, peri-carditis and extreme morbidity). All mortality was documented (weight at death and post-mortem observations). All birds and feeds were weighed at 42 days. All remaining birds were euthanized on Day 42 by asphyxiation with the carcasses submitted for rendering.
The following variables were tested: Response Variables: Gain Per Bird, Feed Per Gain, Mortality (%), Adjusted Feed Per Gain. F test from One Way ANOVA with one blocking factor=location, at Day 42 using 0.05 level of significance.
All Response Variables: LSD T-test procedure for pair-wise comparisons with Type 1 error of means when ANOVA F ratio is significant, overall significance level of 0.05 used. Lines below means (see Table 30, below) indicate groups with insignificant differences in means.
Adjusted Feed/Gain: The total weight of mortality in each pen was added to the final live weight, that value reduced by subtracting the initial weight and then dividing that value into the Total feed consumed to calculate the Adjusted Feed/Gain.

[14] = tested on: Salmonella; assay: In vitro antimicrobial MIC, Salmonella; type: cell-based
Protocol: as §1, §2

[15] = tested on: E. coli; assay: In vitro antimicrobial MIC, E. coli; type: cell-based
Protocol: as §1, §2

[16] = Study 4-1, 24 ppm with direct coccidial challenge
[17] = Study 4-2, 48 ppm with direct coccidial challenge
[18] = BT1583 12 ppm, BMD 50 ppm, COB 90 ppm, alone or combined, pelleted feed
[19] = MON 99 ppm, BT1583 12 ppm, BMD 55 ppm, alone or combined

Me2Bmt-L-dO-I-V-V-dK-V-dL-K-dY-L-V-CH2OH [BT1583]
feed conversion gain [1]: about 10 points
MIC [2]: 50 microgram/ml
in vitro inactivation [3]: only known in vitro method to inactivate it is pH 1.0 plus 100 °C overnight
MIC [4]: 25 microgram/ml
20-day cumulative feed conversion rate, Mean ([5]; 6 ppm in mash feed): 1.5065 and 1.506
20-day cumulative weight gain, Mean ([5]; 6 ppm in mash feed): 591.975
20-day cumulative feed conversion rate, Mean ([5]; 12 ppm in mash feed): 1.4959 and 1.496
20-day cumulative weight gain, Mean ([5]; 12 ppm in mash feed): 618.934
Additional weight gain (%) ([5]; Study 2-1, 6 ppm): 6.7%
Feed conversion improvement (point) ([5]; Study 2-1, 6 ppm): 9 point
Additional weight gain (%) ([5]; Study 2-2, 12 ppm): 11%
Feed conversion improvement (point) ([5]; Study 2-2, 12 ppm): 10 point
MIC [6]: 1 microgram/ml
Additional weight gain (%) ([7]; Study 1-1, 10 ppm): 17%
Feed conversion improvement (point) ([7]; Study 1-1, 10 ppm): 7 point
Additional weight gain (%) ([7]; Study 1-2, 30 ppm): 17%
Feed conversion improvement (point) ([7]; Study 1-2, 30 ppm): 8 point
Additional weight gain (%) [8, 16]: 7.1%
Feed conversion improvement (point) [8, 16]: 13 point
Additional weight gain (%) [8, 17]: 9.3%
Feed conversion improvement (point) [8, 17]: 17 point
cleavage by carboxypeptidase Y [9]: resistant
MIC [10]: > 100 microgram/ml
20-day cumulative feed conversion rate, Mean [11, 18]: 1.3308
21-day cumulative feed conversion rate, Estimated Marginal Mean [11, 18]: 1.331
21-day cumulative weight gain, Mean [11, 18]: 831.7396 and 831.740
Additional weight gain (%) ([11]; Study 3-1, 12 ppm): 16%
Feed conversion improvement (point) ([11]; Study 3-1, 12 ppm): 9 point
Additional weight gain (%) ([11]; Study 3-2, 12 ppm with Coban): 5.4%
Feed conversion improvement (point) ([11]; Study 3-2, 12 ppm with Coban (vs Coban alone)): 9 point
antibiotic activity [12]: full antibiotic activity
efficacy against colibacillosis ([13]; 3 to 4 week old naïve broiler chickens, simulated commercial conditions): highly effective
feed/gain advantage over monensin and BMD fed alone and in combination ([13]; Day 42): ≥ 10 point
weight gain advantage over monensin and BMD fed alone and in combination ([13]; Day 42): ≥ 20 point
Day 42 Feed/Gain [13, 19]: 1.722^ab
Day 42 Gain/Bird [13, 19]: 4.333^ab lb
Day 42 Mortality (%) ([13]; acute and chronic colibacillosis, MON 99 ppm, BT1583 12 ppm, BMD 55 ppm): 2.75^a %
Day 42 Adjusted Feed/Gain ([13]; adjusted for weight of mortality, MON 99 ppm, BT1583 12 ppm, BMD 55 ppm): 1.704^ab
mortality rate compared with non-supplemented controls ([13]; alone or in combination): lower mortality rates
MIC [14]: > 100 microgram/ml
MIC [15]: > 20 microgram/ml
